Results taken from patent publication US9499565B2 (BEIJING XINTIANYU TECHNOLOGY DEVELOPMENT CO., LTD., priority 2012, dated 2016).

Assay: Long-period stability test of powder injections
Format: physicochemical
Settings: placed at room temperature for 28 months
Description: All contents and purities in the present invention are determined using high performance liquid chromatography (HPLC), and chromatography conditions are: filler: octadecylsilane chemically bonded silica; mobile phase: 0.005 mol/L tetrabutyl ammonium hydroxide-acetonitrile (70:30) with pH of 5.0 adjusted by acetic acid; flow rate: 1.5 mL per minute; detection wavelength: 230 nm. The number of theoretical plates should not be less than 3500, as calculated according to sulbactam peak, the separation degree of […] peak and sulbactam peak should meet the requirements, and before official HPLC determination, the precision, accuracy, linearity and range of each specific to-be-quantified substance are also required to be subjected to methodology validation.

cocrystal of piperacillin sodium and sulbactam sodium [cocrystal A]
content of piperacillin sodium: higher than 96.5% | content of sulbactam sodium: higher than 96.5% | total content of related substances: ≤ 2%
